From patent US20150152083A1, “Compounds and Compositions for Modulating EGFR Activity” (IRM LLC, A Delaware Limited Liability Company, priority 2012, published 2015)

Tests used:
EGFR(L858R/T790M) [1] = biological target: T1, EGFR(L858R/T790M) (Homo sapiens, UniProt P00533, L858R/T790M); assay: EGFR biochemical assay (HTRF), IC50 determination; set-up: purchased from Carna (GST-a.a. 669-1210); purchased Carna; conditions: 10 μM ATP
Description: All EGFR biochemical assays were carried out by HTRF method. The EGFR(L858RT790M) enzyme were purchased from Carna (GST-a.a. 669-1210). The substrate peptide Biotin-TK-peptide was purchased from Cis-Bio. The reaction mixtures contained 1 μM peptide substrate, 10 μM ATP, and 0.036 nM EGFR(L858RT790M) in the reaction buffer (50 mM HEPES pH 7.1, 10 mM MgCl2, 0.01% BSA, 1 mM TCEP and 0.1 mM Na3VO4) at a final volume of 10 μL. All reactions were carried out at room temperature in white ProxiPlate™ 384-well Plus plates (PerkinElmer) and were quenched with 5 μL of 0.2 M EDTA at 60 min Five μL of the detection reagents (2.5 ng PT66K and 0.05 μg SAXL per well) were added, the plates were incubated at room temperature for 1 h and then read in EnVision reader. […] For no-preincubation condition, the compounds were added to the assay solution containing ATP and peptide, and the reaction was initiated by addition of enzyme. For pre-incubation conditions, the compounds were added to the assay solution containing enzyme and peptide, and pre-incubated at room temperature for desired period of time, then the reaction was initiated by addition of ATP.
Target sequence in this assay (P00533 669-1210 T790M/L858R): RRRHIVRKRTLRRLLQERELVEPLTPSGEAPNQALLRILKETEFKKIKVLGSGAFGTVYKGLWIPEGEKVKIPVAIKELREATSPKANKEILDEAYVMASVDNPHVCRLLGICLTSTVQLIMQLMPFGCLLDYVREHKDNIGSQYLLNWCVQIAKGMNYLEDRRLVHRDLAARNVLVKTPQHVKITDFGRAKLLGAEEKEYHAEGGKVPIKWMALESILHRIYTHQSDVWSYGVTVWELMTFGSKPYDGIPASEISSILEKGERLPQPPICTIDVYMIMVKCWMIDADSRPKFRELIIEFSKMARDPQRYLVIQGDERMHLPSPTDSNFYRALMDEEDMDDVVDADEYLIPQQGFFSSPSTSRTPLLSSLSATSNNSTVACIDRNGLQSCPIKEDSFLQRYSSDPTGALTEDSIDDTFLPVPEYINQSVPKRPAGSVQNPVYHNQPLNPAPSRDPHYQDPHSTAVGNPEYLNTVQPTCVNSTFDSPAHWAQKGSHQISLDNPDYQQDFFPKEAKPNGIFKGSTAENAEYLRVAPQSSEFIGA

EGFR (WT) = biological target: T2, EGFR (WT) (Homo sapiens, UniProt P00533); assay: EGFR target modulation in engineered NIH3T3 cell lines (phospho-EGFR AlphaLISA); type: cell-based; conditions: NIH3T3 cells expressing human EGFR WT; 3 hours compound; induced with 50 ng/ml EGF
T2 construct: host or cells: NIH3T3
Description: (§1) EGFR Target Modulation in Engineered NIH3T3 Cell Lines
(§2) NIH3T3 cell lines expressing human EGFR (WT, L858R, and L858RT790M) (obtained from Matthew Meyerson's Lab at DFCI) were maintained in 10% FBS/DMEM supplemented with 100 μg/ml Penicillin/Streptomycin (Hyclone #SV30010) and 2 μg/ml Puromycin. The cells were harvested with 0.05% Trypsin/EDTA (Hyclone #SH30236.01), re-suspended in 5% FBS/DMEM Pen/Strep without Puromycin and plated at 9,000 cells per well in 50 μl of media in a 384-well black plate with clear bottoms (Greiner #789068G). The cells were allowed to incubate overnight in a 37° C., 5% CO2 humidified tissue culture incubator. A 12-point test compound curve was prepared by serial diluting a 10 μM stock 1:3 in DMSO in a 384-well compound plate (Greiner #789201L). The serial diluted compounds were transferred to the plate containing cells by using a 50 nl Pin Head device (Perkin Elmer) and the cells were placed back in the incubator for 3 hours. Only the EGFR WT-expressing cells were induced with 50 ng/ml EGF (Preprotech #AF-100-15) for 5 minutes before lysis. The media was removed and cells were lysed in 25 μl of Lysis buffer containing protease and phosphatase inhibitors (1% Triton X-100, 20 mM Tris, pH 7.5, 1 mM EDTA, 1 mM EGTA, 150 mM NaCl, 1× complete cocktail inhibitor (Roche #11 697 498 001), 1× Phosphatase Inhibitor Cocktail Set II and Set III (Sigma #P5726 and #P0044)). The plates were shaken at 4° C. for 5 minutes with foil top at maximum speed. An aliquot of 5 μl from each well was transferred to ProxiPlate™ 384-well Plus plates (PE #6008289). The plates were sealed with a foil top and frozen at −80° C. and thawed when needed.
(§3) The frozen aliquots were thawed and briefly centrifuged. All antibodies and beads were diluted in 1× AlphaLISA HiBlock Buffer (PE #AL004C). Biotinylated anti-phospho-EGFR (Y1068) (Cell Signaling #4031) was incubated with the lysate for 1 hour at room temperature at 1 nM final concentration. Goat anti-total EGFR (R&D Systems #AF231) was added and allowed to equilibrate for 1 hour at room temperature at 1 nM final concentration. Then, 10 μl of mixed beads (AlphaScreen Streptavidin Donor Beads (PE #6760002S) and AlphaLISA anti-goat IgG Acceptor Beads (PE #AL107C)) was equilibrated for 1.5 hours before reading on EnVision plate reader using the built-in settings for AlphaScreen.
(§4) Cells untreated (L858R and L858RT790M) or EGF-induced (WT) were set to 100% maximum response. For a negative control, 10 μM HKI-272 was used to normalize data to 0% of maximum response. With these parameters, the IC50's for each compound in each cell line was calculated using non-linear curve fitting analysis.

EGFR (L858R) = biological target: T3, EGFR (L858R) (Homo sapiens, UniProt P00533, L858R); assay: as above; type: cell-based; conditions: NIH3T3 cells expressing human EGFR L858R; 3 hours compound
T3 construct: host or cells: NIH3T3
Description: as §1, §2, §3, §4

EGFR(L858R/T790M) [2] = biological target: T1, EGFR(L858R/T790M); assay: as above; type: cell-based; set-up: host or cells: NIH3T3; conditions: NIH3T3 cells expressing human EGFR L858R/T790M; 3 hours compound
Description: as §1, §2, §3, §4
Target sequence in this assay (P00533 25-1210 T790M/L858R): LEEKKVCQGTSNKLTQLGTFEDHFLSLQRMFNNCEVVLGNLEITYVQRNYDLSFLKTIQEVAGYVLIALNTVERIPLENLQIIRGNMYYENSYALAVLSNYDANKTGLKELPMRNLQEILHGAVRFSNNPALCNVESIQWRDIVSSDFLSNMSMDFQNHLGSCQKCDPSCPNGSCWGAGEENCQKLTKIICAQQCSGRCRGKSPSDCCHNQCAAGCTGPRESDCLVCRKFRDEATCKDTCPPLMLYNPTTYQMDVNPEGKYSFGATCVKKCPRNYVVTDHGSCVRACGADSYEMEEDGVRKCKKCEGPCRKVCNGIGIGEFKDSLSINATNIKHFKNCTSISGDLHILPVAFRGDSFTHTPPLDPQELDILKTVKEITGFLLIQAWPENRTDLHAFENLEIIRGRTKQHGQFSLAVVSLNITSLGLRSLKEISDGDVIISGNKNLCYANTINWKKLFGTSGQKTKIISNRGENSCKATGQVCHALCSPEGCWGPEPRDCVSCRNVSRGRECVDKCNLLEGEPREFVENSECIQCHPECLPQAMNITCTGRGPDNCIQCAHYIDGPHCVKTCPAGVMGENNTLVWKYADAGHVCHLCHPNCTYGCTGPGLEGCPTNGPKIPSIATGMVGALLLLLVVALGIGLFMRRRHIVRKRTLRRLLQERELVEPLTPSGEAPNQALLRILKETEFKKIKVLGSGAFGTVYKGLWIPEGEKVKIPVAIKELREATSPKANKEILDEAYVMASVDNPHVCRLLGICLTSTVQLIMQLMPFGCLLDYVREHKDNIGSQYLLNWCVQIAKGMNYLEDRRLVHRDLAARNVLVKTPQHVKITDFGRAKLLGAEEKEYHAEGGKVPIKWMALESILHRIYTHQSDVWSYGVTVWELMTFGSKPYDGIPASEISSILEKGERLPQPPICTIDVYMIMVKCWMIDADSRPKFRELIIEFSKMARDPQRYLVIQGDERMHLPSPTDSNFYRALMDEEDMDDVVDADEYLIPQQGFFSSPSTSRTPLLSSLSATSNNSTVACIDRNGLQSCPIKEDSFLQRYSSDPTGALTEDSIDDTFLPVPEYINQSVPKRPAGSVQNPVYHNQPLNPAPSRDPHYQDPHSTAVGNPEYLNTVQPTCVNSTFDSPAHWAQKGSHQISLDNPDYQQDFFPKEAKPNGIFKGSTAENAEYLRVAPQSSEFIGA

[3] = EGFR (L858R/T790M) IC50 (μM) 90 min pre-incubation, 90 min pre-incubation
[4] = no pre-incubation, read-out: EGFR (L858R/T790M) IC50 (μM) No pre-incubation

T2 sequence (P00533 25-1210): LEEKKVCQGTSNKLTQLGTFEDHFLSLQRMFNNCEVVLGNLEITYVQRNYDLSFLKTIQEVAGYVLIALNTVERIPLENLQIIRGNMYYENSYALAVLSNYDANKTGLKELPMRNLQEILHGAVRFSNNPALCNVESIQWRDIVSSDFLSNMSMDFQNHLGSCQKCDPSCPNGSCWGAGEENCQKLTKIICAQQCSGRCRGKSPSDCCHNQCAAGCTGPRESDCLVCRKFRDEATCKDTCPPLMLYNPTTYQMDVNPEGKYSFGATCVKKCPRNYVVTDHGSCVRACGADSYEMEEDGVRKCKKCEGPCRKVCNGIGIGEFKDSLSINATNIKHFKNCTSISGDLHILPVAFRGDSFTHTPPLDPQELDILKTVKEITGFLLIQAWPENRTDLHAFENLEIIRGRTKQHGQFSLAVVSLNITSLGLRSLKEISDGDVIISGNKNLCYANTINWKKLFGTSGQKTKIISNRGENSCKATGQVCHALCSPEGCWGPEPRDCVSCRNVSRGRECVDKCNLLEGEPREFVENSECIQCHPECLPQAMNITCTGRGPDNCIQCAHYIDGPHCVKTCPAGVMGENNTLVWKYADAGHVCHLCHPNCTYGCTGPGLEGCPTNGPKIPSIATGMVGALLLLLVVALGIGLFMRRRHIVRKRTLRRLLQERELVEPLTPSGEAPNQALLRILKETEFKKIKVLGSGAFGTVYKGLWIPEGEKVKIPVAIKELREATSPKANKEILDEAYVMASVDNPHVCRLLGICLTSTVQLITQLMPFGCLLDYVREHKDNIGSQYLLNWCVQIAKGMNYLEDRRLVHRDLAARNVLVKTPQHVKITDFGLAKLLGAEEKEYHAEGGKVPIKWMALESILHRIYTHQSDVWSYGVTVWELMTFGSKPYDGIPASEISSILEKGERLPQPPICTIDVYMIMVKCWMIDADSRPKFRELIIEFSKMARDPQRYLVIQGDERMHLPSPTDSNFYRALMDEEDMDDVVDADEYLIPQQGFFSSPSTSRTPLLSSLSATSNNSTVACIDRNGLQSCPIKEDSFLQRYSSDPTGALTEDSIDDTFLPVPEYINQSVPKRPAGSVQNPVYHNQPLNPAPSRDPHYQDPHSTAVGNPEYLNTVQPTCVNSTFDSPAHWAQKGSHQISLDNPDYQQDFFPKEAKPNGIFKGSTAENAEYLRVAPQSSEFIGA
T3 sequence (P00533 25-1210 L858R): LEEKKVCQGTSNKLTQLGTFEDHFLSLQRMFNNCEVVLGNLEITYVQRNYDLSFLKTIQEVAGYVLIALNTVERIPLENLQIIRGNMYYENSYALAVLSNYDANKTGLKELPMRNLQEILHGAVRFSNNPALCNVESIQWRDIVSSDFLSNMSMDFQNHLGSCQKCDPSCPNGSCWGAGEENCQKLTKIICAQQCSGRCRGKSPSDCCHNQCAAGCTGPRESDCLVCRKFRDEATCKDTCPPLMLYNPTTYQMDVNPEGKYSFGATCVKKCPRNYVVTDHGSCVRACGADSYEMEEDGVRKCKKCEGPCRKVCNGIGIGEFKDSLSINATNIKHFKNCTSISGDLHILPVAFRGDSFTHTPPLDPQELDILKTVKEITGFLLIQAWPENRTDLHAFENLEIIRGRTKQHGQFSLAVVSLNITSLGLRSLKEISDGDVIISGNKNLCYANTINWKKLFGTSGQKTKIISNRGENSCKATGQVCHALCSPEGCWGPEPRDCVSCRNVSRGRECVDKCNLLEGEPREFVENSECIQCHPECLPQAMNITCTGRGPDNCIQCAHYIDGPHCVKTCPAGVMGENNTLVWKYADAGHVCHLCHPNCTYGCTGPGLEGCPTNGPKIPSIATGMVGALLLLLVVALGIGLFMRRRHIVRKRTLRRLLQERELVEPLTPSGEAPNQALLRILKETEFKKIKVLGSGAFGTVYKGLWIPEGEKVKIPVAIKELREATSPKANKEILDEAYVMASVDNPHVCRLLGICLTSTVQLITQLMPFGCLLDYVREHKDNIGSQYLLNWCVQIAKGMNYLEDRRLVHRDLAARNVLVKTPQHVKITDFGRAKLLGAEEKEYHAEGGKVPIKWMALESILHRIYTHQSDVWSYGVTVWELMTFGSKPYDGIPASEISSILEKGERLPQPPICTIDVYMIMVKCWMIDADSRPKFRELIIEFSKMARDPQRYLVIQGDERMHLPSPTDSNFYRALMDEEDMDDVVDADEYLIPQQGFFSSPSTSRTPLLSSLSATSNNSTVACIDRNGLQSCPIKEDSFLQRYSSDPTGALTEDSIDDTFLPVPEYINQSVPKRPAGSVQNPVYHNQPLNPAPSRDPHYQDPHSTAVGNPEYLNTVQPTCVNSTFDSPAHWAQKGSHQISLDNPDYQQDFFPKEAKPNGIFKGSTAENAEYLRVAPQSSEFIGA

Row | IC50 (EGFR(L858R/T790M) [1]; [3]) [µM] | IC50 (EGFR(L858R/T790M) [1]; [4]) [µM] | IC50 (EGFR (WT)) [µM] | IC50 (EGFR (L858R)) [µM] | IC50 (EGFR(L858R/T790M) [2]) [µM] | SMILES
1 | 0.003 | 0.072 | > 10 | 0.25 | 0.026 | C=CC(=O)Nc1cccc(-n2c(NC(=O)c3cccc(C(F)(F)F)c3)nc3cc(CN4CCOCC4)ccc32)c1 [Example 5-3, N-[5-(morpholin-4-ylmethyl)-1-[3-(prop-2-enamido)phenyl]-1H-1,3-benzodiazol-2-yl]-3-(trifluoromethyl)benzamide]
2 | 0.046 | 0.62 | > 10 | > 10 | 0.83 | C=CC(=O)NCCCn1c(NC(=O)c2cccc(C(F)(F)F)c2)nc2cc(C)ccc21 [Example 8-4, N-{5-methyl-1-[3-(prop-2-enamido)propyl]-1H-1,3-benzodiazol-2-yl}-3-(trifluoromethyl)benzamide]
